For 11 molecules, Dmax and DC50 results are on record in patent publication US12559506B2, “Indazole based compounds and associated methods of use” (Arvinas Operations, Inc., priority 2021, dated 2026).

One assay concerns the target T1, wildtype LRRK2 (Homo sapiens, UniProt Q5S007).
T1 construct: expressed in transfected cells; host or cells: HEK293 (ATCC CRL-1573), transient transfection, mammalian expression vector with ubiquitin promoter
The assay can be described thus: LRRK2 degradation assay, HiBit-tagged wildtype LRRK2 expressed from plasmid in HEK293 cells (Nano-Glo Dual-Luciferase). The class given is cell-based. Conditions: 24 hours; for Dmax: read-out: **WT Dmax (%); for DC50: read-out: *WT DC50. Put shortly:
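Degradation read as Nano-Glo HiBiT signal over firefly luciferase (cell number/viability) after 24 h compound exposure of transiently transfected HEK293 expressing C-terminally HiBiT-tagged wildtype or G2019S LRRK2. Data as % DMSO; DC50/Dmax fitted per plate, triplicate plates repeated twice.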

A further assay concerns the target T2, G2019S LRRK2 (Homo sapiens, UniProt Q5S007, G2019S).
T2 construct: expressed in transfected cells; host or cells: HEK293 (ATCC CRL-1573), transient transfection, mammalian expression vector with ubiquitin promoter
The assay can be described thus: LRRK2 degradation assay, HiBit-tagged G2019S LRRK2 expressed from plasmid in HEK293 cells (Nano-Glo Dual-Luciferase). Type of assay: cell-based. Conditions: 24 hours. From the text:
Exemplary Assay for Testing LRRK2 Degradation Driven by Exemplary Hetero-Bifunctional Compounds Designed to Target LRRK2
The assay measures the degradation of wildtype and G2019S LRRK2 tagged with a HiBit tag on the C-terminus of the protein that was expressed from a mammalian expression vector, driven by the ubiquitin promoter in HEK293 cells. Each compound dose-response was repeated on two separate days, on three separate plates each day.
Plasmid Preparation. Transfection mixes were assembled as follows and incubated for 30 minutes at room temperature. In a 15 mL tube, 5.25 mL Opti-MEM (no additions) was mixed with 17 μL Firefly Luciferase plasmid at 1 μg/μL and 158 μL WT plasmid DNA at 1 μg/μL (175 μg total DNA) were mixed by flicking. In a new 15 mL tube, 5.25 mL OptiMEM was mixed with 17 μL Firefly Luciferase plasmid at 1 μg/μL and 158 μL G2019S plasmid DNA at 1 μg/μL (175 μg total DNA) were mixed by flicking. X-tremeGene HP was mixed thoroughly using a vortex. Next, 175 μL was added to each tube and flicked to mix. Both tubes were left to incubate for 30 minutes at room temperature.
While the transfection mixes were incubating, HEK293 cells (acquired from ATCC; ATCC CRL-1573) were harvested with trypsin. Once cells are detached, the cells were resuspended in 12 mL OptiMEM+5% FBS and transferred to a 50 mL tube. The cells were mixed well and counted. Using OptiMEM+5% FBS, the cells were diluted in two 250 mL conical tubes at 0.71×10^6 cells/mL in 70 mL. One tube was labeled “WT” and the other “G2019S”. The WT and G2019S transfection mixes were added dropwise to the corresponding 250 mL tubes. The tubes were mixed first by pipetting then by swirling. The tubes were incubated at room temperature for at least 5 minutes.
Each tube was swirled before dispensing and after every three plates. Seventy microliters of cells were dispensed with WT or G2019S DNA to seven plates each. Three plates of each were tested with compound plate one (preparation described below) and three plates of each were tested with compound plate two (preparation described below). The first plate from each set served as a “prime” plate and was not used to test compounds. Each plate was incubated in the hood for 10 minutes before placing in the 37° C. incubator for 24 hours.
Preparation of Compound and Assay Plates. Two compound plates were made using 96 well polypropylene plates. Compounds were made up at 10 mM and were diluted to 1 mM in 30 μL. Each dose response curve included a well of DMSO, as a negative control and for normalization, and a well of 0.5 μM of Compound 4 as a positive control. In addition to seven test compounds, each plate also included a dose response of Compound 4. The compound plates were spun down along at 1200 rpm for 2 minutes.
The two compound plates were then mixed and 2 μL was diluted in intermediate plates having 248 μL of Opti-Mem in each well. Next, 10 μL diluted compounds from the intermediate plates were added to each test plate (three WT and three G2019S plates per compound plate for a total of 12 assay plates). The plates were incubated for 24 hours at 37° C.
All assay plates and all Nano-Glo Dual-Luciferase Reporter Assay System components (except for the DLR substrate) were equilibrated to room temperature. Next, the luciferase buffer was mixed with the lyophilized amber bottle until fully dissolved, and 75 μL of the luciferase mixture was added to each well of each assay plate. The assay plates were incubated for 10 minutes at room temperature with shaking for at least 5 minutes, and then read on a plate reader.
Developing Plates and Analyzing Data. One milliliter of DLR substrate and 1 mL LgBiT Protein were added to the Stop and Glo buffer, and 75 μL of the mixture was added to each well of each plate. Optically clear seals were added to each plate and each plate was incubated for 20 minutes with shaking for at least 10 minutes, and then read on a plate reader. […]
In general terms: With HiBiT, luminescence reflects the tagged protein that the partner subunit can reach.

The mark [1] stands for this setting: HiBit-tagged wildtype LRRK2 in HEK293 cells.
[2] abbreviates: HiBit-tagged G2019S LRRK2 in HEK293 cells.
The mark [3] stands for this setting: HiBit-tagged wildtype LRRK2, HEK293 cells.
The mark [4] stands for this setting: HiBit-tagged G2019S LRRK2, HEK293 cells.

Read-outs that look alike come from different tables or passages of the source.

T1 sequence (Q5S007 whole entry): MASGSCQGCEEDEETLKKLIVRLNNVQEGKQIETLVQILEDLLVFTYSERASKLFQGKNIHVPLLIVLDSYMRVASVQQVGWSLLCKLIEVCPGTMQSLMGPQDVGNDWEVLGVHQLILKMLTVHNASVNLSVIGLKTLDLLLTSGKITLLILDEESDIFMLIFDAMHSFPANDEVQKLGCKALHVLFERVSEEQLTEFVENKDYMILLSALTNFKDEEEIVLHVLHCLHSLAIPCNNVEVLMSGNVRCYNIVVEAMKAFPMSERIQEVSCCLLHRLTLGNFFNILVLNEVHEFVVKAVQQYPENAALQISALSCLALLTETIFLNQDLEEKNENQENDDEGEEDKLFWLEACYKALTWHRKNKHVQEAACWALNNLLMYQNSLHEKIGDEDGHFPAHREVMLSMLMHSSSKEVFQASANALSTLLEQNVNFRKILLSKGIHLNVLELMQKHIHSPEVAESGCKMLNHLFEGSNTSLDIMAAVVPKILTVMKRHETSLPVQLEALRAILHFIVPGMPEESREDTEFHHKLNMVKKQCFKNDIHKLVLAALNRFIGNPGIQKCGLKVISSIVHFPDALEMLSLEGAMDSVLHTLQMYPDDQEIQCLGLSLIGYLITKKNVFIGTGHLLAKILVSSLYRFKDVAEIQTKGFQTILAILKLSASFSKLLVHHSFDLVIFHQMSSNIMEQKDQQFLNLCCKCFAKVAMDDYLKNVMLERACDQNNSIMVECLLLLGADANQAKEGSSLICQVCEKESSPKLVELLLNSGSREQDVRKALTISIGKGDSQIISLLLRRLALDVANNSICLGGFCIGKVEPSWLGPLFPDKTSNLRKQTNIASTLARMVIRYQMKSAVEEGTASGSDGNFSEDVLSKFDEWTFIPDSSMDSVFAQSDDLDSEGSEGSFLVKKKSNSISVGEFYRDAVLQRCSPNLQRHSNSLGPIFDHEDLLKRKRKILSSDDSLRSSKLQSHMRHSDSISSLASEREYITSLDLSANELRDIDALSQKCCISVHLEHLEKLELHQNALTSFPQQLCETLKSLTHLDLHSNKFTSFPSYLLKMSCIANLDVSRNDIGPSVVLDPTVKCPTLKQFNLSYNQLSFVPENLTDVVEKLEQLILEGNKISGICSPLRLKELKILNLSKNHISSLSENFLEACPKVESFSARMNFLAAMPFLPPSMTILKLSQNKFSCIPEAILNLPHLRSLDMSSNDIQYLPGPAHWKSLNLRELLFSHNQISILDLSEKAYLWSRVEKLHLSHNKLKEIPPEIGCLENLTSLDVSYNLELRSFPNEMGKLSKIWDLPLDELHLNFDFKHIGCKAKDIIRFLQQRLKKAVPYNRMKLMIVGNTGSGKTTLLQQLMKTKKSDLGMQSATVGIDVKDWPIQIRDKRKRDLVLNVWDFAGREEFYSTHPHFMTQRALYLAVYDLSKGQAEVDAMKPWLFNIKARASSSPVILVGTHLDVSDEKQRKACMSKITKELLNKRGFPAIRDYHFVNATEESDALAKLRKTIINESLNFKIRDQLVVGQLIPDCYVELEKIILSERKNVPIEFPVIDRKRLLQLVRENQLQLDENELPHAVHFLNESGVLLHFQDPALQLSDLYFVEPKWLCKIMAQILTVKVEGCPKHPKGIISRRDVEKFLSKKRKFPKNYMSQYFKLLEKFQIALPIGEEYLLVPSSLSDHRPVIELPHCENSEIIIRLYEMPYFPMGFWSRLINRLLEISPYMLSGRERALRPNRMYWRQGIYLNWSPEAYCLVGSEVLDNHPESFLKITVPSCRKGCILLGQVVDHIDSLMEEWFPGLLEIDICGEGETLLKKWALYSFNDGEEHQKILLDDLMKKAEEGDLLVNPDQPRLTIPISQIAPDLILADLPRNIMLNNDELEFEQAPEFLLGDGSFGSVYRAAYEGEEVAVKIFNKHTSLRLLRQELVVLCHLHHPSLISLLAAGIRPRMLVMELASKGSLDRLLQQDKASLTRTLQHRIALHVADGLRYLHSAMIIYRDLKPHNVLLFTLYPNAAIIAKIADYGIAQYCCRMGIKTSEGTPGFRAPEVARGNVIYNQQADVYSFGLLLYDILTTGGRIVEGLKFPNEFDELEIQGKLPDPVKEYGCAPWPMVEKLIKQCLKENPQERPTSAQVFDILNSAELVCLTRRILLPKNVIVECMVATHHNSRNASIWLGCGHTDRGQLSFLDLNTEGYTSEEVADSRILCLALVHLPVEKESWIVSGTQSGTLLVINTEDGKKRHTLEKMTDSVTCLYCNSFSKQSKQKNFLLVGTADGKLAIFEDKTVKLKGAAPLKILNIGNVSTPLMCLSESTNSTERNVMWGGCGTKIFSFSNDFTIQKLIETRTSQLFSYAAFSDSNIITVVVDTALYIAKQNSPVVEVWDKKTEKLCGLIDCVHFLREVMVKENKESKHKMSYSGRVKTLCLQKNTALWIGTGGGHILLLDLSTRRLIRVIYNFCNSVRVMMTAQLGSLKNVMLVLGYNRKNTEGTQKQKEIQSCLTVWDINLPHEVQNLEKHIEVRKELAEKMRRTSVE
T2 sequence (Q5S007 whole entry G2019S): as the sequence (Q5S007 whole entry) above, with G2019S counted along it

In general, Dmax refers to the largest share of the target that was removed. The term DC50 denotes the concentration giving 50% degradation. As for `CC1(Oc2ccc3[nH]nc(-c4ccnc(N5CCC(O[C@H]6C[C@H](OC7CCN(c8ccc9c(c8)C(=O)N(C8CCC(=O)NC8=O)C9=O)CC7)C6)CC5)c4)c3c2)CC1` (some centres unmarked) [Compound 127, 2-(2,6-dioxo-3-piperidyl)-5-[4-[3-[[1-[4-[5-(1-methylcyclopropoxy)-1H-indazol-3-yl]-2-pyridyl]-4-piperidyl]oxy]cyclobutoxy]-1-piperidyl]isoindoline-1,3-dione], at wildtype LRRK2 (setting [1]), the greatest degradation seen (Dmax) is less than 50% and the 50% degradation concentration (DC50) was in the range of 10 to 50 nM. On G2019S LRRK2 (setting [2]), this molecule displayed a 50% degradation concentration (DC50) of 10 to 50 nM and a maximal degradation (Dmax) of less than 50%.

For `CC1(Oc2ccc3[nH]nc(-c4ccnc(N5CCOC6(CN(CC7CCN(CC8CCN(c9cccc%10c9C(=O)N(C9CCC(=O)NC9=O)C%10=O)CC8)CC7)C6)C5)c4)c3c2)CC1` (centres unmarked) [Compound 144, 2-(2,6-dioxo-3-piperidyl)-4-[4-[[4-[[8-[4-[5-(1-methylcyclopropoxy)-1H-indazol-3-yl]-2-pyridyl]-5-oxa-2,8-diazaspiro[3.5]nonan-2-yl]methyl]-1-piperidyl]methyl]-1-piperidyl]isoindoline-1,3-dione], on wildtype LRRK2 (setting [1]), the Dmax was 50 to 70% and the DC50 is 10 to 50 nM. At G2019S LRRK2 (setting [2]), this molecule gave a DC50 of 10 to 50 nM and a maximal degradation (Dmax) of 50 to 70%.

As to `CC1(Oc2ccc3[nH]nc(-c4cc(N5CCC(CN6CCN(CC7CCN(c8ccc9c(c8)C(=O)N(C8CCC(=O)NC8=O)C9=O)CC7)CC6)CC5)ncc4F)c3c2)CC1` (centres unmarked) [Compound 99, 2-(2,6-dioxo-3-piperidyl)-5-[4-[[4-[[1-[5-fluoro-4-[5-(1-methylcyclopropoxy)-1H-indazol-3-yl]-2-pyridyl]-4-piperidyl]methyl]piperazin-1-yl]methyl]-1-piperidyl]isoindoline-1,3-dione], on wildtype LRRK2 (setting [1]), the Dmax is less than 50% and the half-maximal degradation concentration (DC50) is 50 to 100 nM. For the same molecule, on G2019S LRRK2 (setting [2]), the DC50 lay in the range of 50 to 100 nM and the Dmax is less than 50%.

Consider `CC1(Oc2ccc3[nH]nc(-c4cc(N5CCN(C[C@@H]6CN(CC7CCN(c8ccc9c(c8)C(=O)N(C8CCC(=O)NC8=O)C9=O)CC7)CCO6)CC5)ncn4)c3c2)CC1` (stereo partly drawn) [Compound 156, 2-(2,6-dioxo-3-piperidyl)-5-[4-[[(2R)-2-[[4-[6-[5-(1-methylcyclopropoxy)-1H-indazol-3-yl]pyrimidin-4-yl]piperazin-1-yl]methyl]morpholin-4-yl]methyl]-1-piperidyl]isoindoline-1,3-dione], for which, at wildtype LRRK2 (setting [3]), the maximal degradation (Dmax) lay in the range of 50 to 70% and the half-maximal degradation concentration (DC50) was less than 10 nM. At G2019S LRRK2 (setting [4]), this molecule registered a DC50 of less than 10 nM and a Dmax of less than 50%.

As to `CC1(Oc2ccc3[nH]nc(-c4cc(N5CCN(C[C@H]6CCN(CC7CCN(c8ccc9c(c8)C(=O)N(C8CCC(=O)NC8=O)C9=O)CC7)C(=O)C6)CC5)ncn4)c3c2)CC1` (single isomer, unassigned) [Compound 104], the greatest degradation seen (Dmax) on wildtype LRRK2 (setting [1]) is 50 to 70%; on G2019S LRRK2 (setting [2]), less than 50%. For the same molecule, the DC50 at wildtype LRRK2 (setting [1]) and on G2019S LRRK2 (setting [2]) was less than 10 nM throughout.

For the molecule `CC1(Oc2ccc3[nH]nc(-c4cc(N5CCC(C(=O)N6CCC(CN7CCN(c8ccc9c(c8)C(=O)N(C8CCC(=O)NC8=O)C9=O)CC7)CC6)CC5)ncn4)c3c2)CC1` (centres unmarked) [Compound 86, 2-(2,6-dioxopiperidin-3-yl)-5-(4-{[1-(1-{6-[5-(1-methylcyclopropoxy)-1H-indazol-3-yl]pyrimidin-4-yl}piperidine-4-carbonyl)piperidin-4-yl]methyl}piperazin-1-yl)-2,3-dihydro-1H-isoindole-1,3-dione], at wildtype LRRK2 (setting [1]), the Dmax is 50 to 70% and the half-maximal degradation concentration (DC50) was less than 10 nM. At G2019S LRRK2 (setting [2]), this molecule displayed a 50% degradation concentration (DC50) of less than 10 nM and a Dmax of 50 to 70%.

As to `C[C@H]1CN(c2cc(-c3n[nH]c4ccc(OC5(C)CC5)cc34)ncn2)CCN1CC1CCN(CCCOc2cccc3c2C(=O)N(C2CCC(=O)NC2=O)C3=O)CC1` (stereo partly drawn) [Compound 139, 2-(2,6-dioxo-3-piperidyl)-4-[3-[4-[[(2S)-2-methyl-4-[6-[5-(1-methylcyclopropoxy)-2H-indazol-3-yl]pyrimidin-4-yl]piperazin-1-yl]methyl]-1-piperidyl]propoxy]isoindoline-1,3-dione], at wildtype LRRK2 (setting [1]), the Dmax is less than 50% and the half-maximal degradation concentration (DC50) lay within 10 to 50 nM. On G2019S LRRK2 (setting [2]), the 50% degradation concentration (DC50) fell in the range of 10 to 50 nM and the greatest degradation seen (Dmax) is less than 50%.

As for `C[C@H]1CN(c2cc(-c3n[nH]c4ccc(OC5CC5)cc34)ncn2)CCN1CC1CCN(CC2CCN(c3ccc4c(c3)C(=O)N(C3CCC(=O)NC3=O)C4=O)CC2)CC1` (stereo partly drawn) [Compound 72, 5-{4-[(4-{[(2S)-4-[6-(5-cyclopropoxy-1H-indazol-3-yl)pyrimidin-4-yl]-2-methylpiperazin-1-yl]methyl}piperidin-1-yl)methyl]piperidin-1-yl}-2-(2,6-dioxopiperidin-3-yl)-2,3-dihydro-1H-isoindole-1,3-dione], the maximal degradation (Dmax) at wildtype LRRK2 (setting [1]) and on G2019S LRRK2 (setting [2]) was 50 to 70% in each case. In addition, the DC50 on wildtype LRRK2 (setting [1]) and at G2019S LRRK2 (setting [2]) was 10 to 50 nM each time.

Turning to `CC1(Oc2ccc3[nH]nc(-c4ccnc(N5CCN(CC6(F)CCN(CC7CCN(c8ccc9c(c8)C(=O)N(C8CCC(=O)NC8=O)C9=O)CC7)CC6)CC5)c4)c3c2)CC1` (centres unmarked) [Compound 80, 2-(2,6-dioxo-3-piperidyl)-5-[4-[[4-fluoro-4-[[4-[4-[5-(1-methylcyclopropoxy)-1H-indazol-3-yl]-2-pyridyl]piperazin-1-yl]methyl]-1-piperidyl]methyl]-1-piperidyl]isoindoline-1,3-dione], the Dmax at wildtype LRRK2 (setting [1]) was less than 50%; on G2019S LRRK2 (setting [2]), 50 to 70%. In addition, the DC50 on wildtype LRRK2 (setting [1]) and on G2019S LRRK2 (setting [2]) was less than 10 nM throughout.

In the case of `CC1(Oc2ccc3[nH]nc(-c4cc(N5CCC(CN=S6(=O)CCN(CC7CCN(c8ccc9c(c8)C(=O)N(C8CCC(=O)NC8=O)C9=O)CC7)CC6)CC5)ncn4)c3c2)CC1` (centres unmarked) [Compound 63, 2-(2,6-dioxo-3-piperidyl)-5-[4-[[1-[[1-[6-[5-(1-methylcyclopropoxy)-1H-indazol-3-yl]pyrimidin-4-yl]-4-piperidyl]methylimino]-1-oxo-1,4-thiazinan-4-yl]methyl]-1-piperidyl]isoindoline-1,3-dione], on wildtype LRRK2 (setting [1]), the maximal degradation (Dmax) is no less than 70% and the half-maximal degradation concentration (DC50) is less than 10 nM. Besides, at G2019S LRRK2 (setting [2]), the DC50 is less than 10 nM and the Dmax is no less than 70%.

`C[C@H]1CN(c2cc(-c3n[nH]c4ccc(OC5(C)CC5)cc34)ncn2)CCN1CCC1CCN(CC2CCN(c3cccc4c3C(=O)N(C3CCC(=O)NC3=O)C4=O)CC2)CC1` (stereo partly drawn) [Compound 138, 2-(2,6-dioxo-3-piperidyl)-4-[4-[[4-[2-[(2S)-2-methyl-4-[6-[5-(1-methylcyclopropoxy)-2H-indazol-3-yl]pyrimidin-4-yl]piperazin-1-yl]ethyl]-1-piperidyl]methyl]-1-piperidyl]isoindoline-1,3-dione]: on wildtype LRRK2 (setting [1]), the Dmax is no less than 70% and the DC50 was 10 to 50 nM. At G2019S LRRK2 (setting [2]), the half-maximal degradation concentration (DC50) is less than 10 nM and the maximal degradation (Dmax) was no less than 70%.
